Results reported in patent publication US11203613B2, “Peptidomimetic proteasome inhibitors” (CORNELL UNIVERSITY, priority 2017, dated 2021).
pIC50: −log10 of the molar value. Several values for one entry are separate records, joined by “and”; a condition that tells them apart may be missing. Equal values may be shown once.

target: Human Constitutive (Hu C-20S) β5 Active Subunit (Homo sapiens, UniProt P28074); experiment: IC50 determination, human constitutive 20S proteasome β5c (suc-LLVY-AMC hydrolysis); type: biochemical; details: Table 2; several values in a cell are repeat determinations; read-out: Hu c-20S IC50

Structure (SMILES) | pIC50
C[C@H](NC(=O)[C@H](CC(=O)N1CCCC1)NC(=O)CCc1ccccc1)C(=O)NCc1cccc2cc[nH]c12 [CF-503293] | 5.39 and 4.94 and 4.72 and 4.44

same assay, conditions: Table 3; IC50 against human constitutive β5 active subunit; read-out: Hu-C20S β5

Structure (SMILES) | pIC50
C[C@H](NC(=O)[C@H](CC(=O)N1CCCC[C@@H]1C)NC(=O)CC1CCOCC1)c1ncc(Cc2ccccc2)[nH]1 [CEN-122, (S)—N—((S)-1-(5-Benzyl-1H-imidazol-2-yl)ethyl)-4-((S)-2-methylpiperidin-1-yl)-4-oxo-2-(2-(tetrahydro-2H-pyran-4-yl)acetamido)butanamide] | 4.87
CC[C@H]1CCCCN1C(=O)C[C@H](NC(=O)N(C)Cc1ccccc1)C(=O)N[C@@H](C)c1nc2c(F)cccc2[nH]1 [CEN-26, (S)-2-(3-Benzyl-3-methylureido)-4-((S)-2-ethylpiperidin-1-yl)-N—((S)-1-(4-fluoro-1H-benzo[d]imidazol-2-yl)ethyl)-4-oxobutanamide] | 5.48
C[C@H](NC(=O)[C@H](CC(=O)N1CCCC[C@@H]1C)NC(=O)N(C)Cc1ccccc1)c1nc2c(F)cccc2[nH]1 [CEN-56, (S)-2-(3-Benzyl-3-methylureido)-N—((S)-1-(4-fluoro-1H-benzo[d]imidazol-2-yl)ethyl)-4-((S)-2-methylpiperidin-1-yl)-4-oxobutanamide] | 4.76
CC[C@H]1CCCCN1C(=O)C[C@H](NC(=O)c1cncs1)C(=O)N[C@@H](C)c1nc2c(F)cccc2[nH]1 [CEN-11, N—((S)-4-((S)-2-Ethylpiperidin-1-yl)-1-(((S)-1-(4-fluoro-1H-benzo[d]imidazol-2-yl)ethyl)amino)-1,4-dioxobutan-2-yl)thiazole-5-carboxamide] | 4.72
C[C@H](NC(=O)[C@@H](NC(=O)CCc1ccc(F)cc1)[C@@H](C)O)c1nc2c(F)cccc2[nH]1 [CEN-72, (2S,3R)—N—((S)-1-(4-Fluoro-1H-benzo[d]imidazol-2-yl)ethyl)-2-(3-(4-fluorophenyl)propanamido)-3-hydroxybutanamide] | < 4.00
C[C@H](NC(=O)[C@H](CC(=O)N1CCCC[C@@H]1C)NC(=O)CC1CCOCC1)c1ncc(-c2ccc(F)cc2F)[nH]1 [CEN-106, (S)—N—((S)-1-(5-(2,4-Difluorophenyl)-1H-imidazol-2-yl)ethyl)-4-((S)-2-methylpiperidin-1-yl)-4-oxo-2-(2-(tetrahydro-2H-pyran-4-yl)acetamido)butanamide] | 4.89
CC(C)CS(=O)(=O)N[C@@H](CC(=O)N1CCCC[C@@H]1C)C(=O)N[C@@H](C)c1ncc(-c2ccc(F)cc2F)[nH]1 [CEN-104, (S)—N—((S)-1-(5-(2,4-Difluorophenyl)-1H-imidazol-2-yl)ethyl)-4-((S)-2-methylpiperidin-1-yl)-2-((2-methylpropyl)sulfonamido)-4-oxobutanamide] | 5.31
Cc1cc(C(=O)N[C@@H](CC(=O)N2CCCC[C@@H]2C)C(=O)N[C@@H](C)c2ncc(-c3ccccc3)[nH]2)no1 [CEN-116, 5-Methyl-N—((S)-4-((S)-2-methylpiperidin-1-yl)-1,4-dioxo-1-(((S)-1-(5-phenyl-1H-imidazol-2-yl)ethyl)amino)butan-2-yl)isoxazole-3-carboxamide] | 5.02
CC[C@H]1CCCCN1C(=O)C[C@H](NC(=O)OCc1ccccc1)C(=O)N[C@@H](C)c1nc2c(F)cccc2[nH]1 [CEN-23, Benzyl ((S)-4-((S)-2-Ethylpiperidin-1-yl)-1-(((S)-1-(4-fluoro-1H-benzo[d]imidazol-2-yl)ethyl)amino)-1,4-dioxobutan-2-yl)carbamate] | 5.24
CC[C@H]1CCCCN1C(=O)C[C@H](NC(=O)N1CCOCC1)C(=O)N[C@@H](C)c1nc2c(F)cccc2[nH]1 [CEN-14, N—((S)-4-((S)-2-Ethylpiperidin-1-yl)-1-(((S)-1-(4-fluoro-1H-benzo[d]imidazol-2-yl)ethyl)amino)-1,4-dioxobutan-2-yl)morpholine-4-carboxamide] | 5.35
Cc1cc(C(=O)N[C@@H](CC(=O)N2CCC[C@@H]2c2ccccc2)C(=O)N[C@@H](C)c2nc3ccccc3[nH]2)no1 [CEN-53, N—((S)-1-(((S)-1-(1H-Benzo[d]imidazol-2-yl)ethyl)amino)-1,4-dioxo-4-((R)-2-phenylpyrrolidin-1-yl)butan-2-yl)-5-methylisoxazole-3-carboxamide] | 5.01
C[C@H](NC(=O)[C@H](CC(=O)N1CCCC[C@@H]1C)NC(=O)OCc1ccccc1)c1nc2c(F)cccc2[nH]1 [CEN-50, Benzyl ((S)-1-(((S)-1-(4-Fluoro-1H-benzo[d]Imidazol-2-yl)ethyl)amino)-4-((S)-2-methylpiperidin-1-yl)-1,4-dioxobutan-2-yl)carbamate] | 4.83
C[C@H](NC(=O)[C@H](CC(=O)N1CCC[C@H]1c1ccccc1)NC(=O)C1CC2(COC2)C1)c1nc2cccc(F)c2[nH]1 [CEN-63, N—((S)-1-(((S)-1-(7-Fluoro-1H-benzo[d]imidazol-2-yl)ethyl)amino)-1,4-dioxo-4-((S)-2-phenylpyrrolidin-1-yl)butan-2-yl)-2-oxaspiro[3.3]heptane-6-carboxamide] | 5.17
CC[C@H]1CCCCN1C(=O)C[C@H](Nc1nc(C(C)C)no1)C(=O)N[C@@H](C)c1nc2c(F)cccc2[nH]1 [CEN-8, (S)-4-((S)-2-Ethylpiperidin-1-yl)-N—((S)-1-(4-fluoro-1H-benzo[d]imidazol-2-yl)ethyl)-2-((3-isopropyl-1,2,4-oxadiazol-5-yl)amino)-4-oxobutanamide] | 5.44
CC(C)CCC(=O)N[C@@H](CC(=O)N1CCCC[C@@H]1C(F)(F)F)C(=O)N[C@@H](C)c1ncc(-c2ccc(F)cc2F)[nH]1 [CEN-111, N—((S)-1-(((S)-1-(5-(2,4-Difluorophenyl)-1H-imidazol-2-yl)ethyl)amino)-1,4-dioxo-4-((R)-2-(trifluoromethyl)piperidin-1-yl)butan-2-yl)-4-methylpentanamide] | 5.31
Cc1cc(C(=O)N[C@@H](CC(=O)N2CCC[C@@H]2c2ccccc2)C(=O)N[C@@H](C)c2ncc(-c3ccc(F)cc3F)[nH]2)no1 [CEN-115, N—((S)-1-(((S)-1-(5-(2,4-Difluorophenyl)-1H-imidazol-2-yl)ethyl)amino)-1,4-dioxo-4-((R)-2-phenylpyrrolidin-1-yl)butan-2-yl)-5-methylisoxazole-3-carboxamide] | < 4.00
C[C@H](NC(=O)[C@H](CC(=O)N1CCCC[C@@H]1C)NC(=O)C1CC(C)(C)C1)c1ncc(-c2ccc(F)cc2F)[nH]1 [CEN-96, N—((S)-1-(((S)-1-(5-(2,4-difluorophenyl)-1H-imidazol-2-yl)ethyl)amino)-4-((S)-2-methylpiperidin-1-yl)-1,4-dioxobutan-2-yl)-3,3-dimethylcyclobutane-1-carboxamide] | 5.24
CC(C)CCC(=O)N[C@@H](CC(=O)N1CCOC[C@@H]1C)C(=O)N[C@@H](C)c1ncc(-c2ccc(F)cc2F)[nH]1 [CEN-92, N—((S)-1-(((S)-1-(5-(2,4-Difluorophenyl)-1H-imidazol-2-yl)ethyl)amino)-4-((S)-3-methylmorpholino)-1,4-dioxobutan-2-yl)-4-methylpentanamide] | 4.82
C[C@@H](NC(=O)[C@H](CC(=O)N1CCCC[C@@H]1C)NC(=O)CCC(C)(C)C)c1nc2ccccc2[nH]1 [CEN-37, N—((S)-1-(((R)-1-(1H-Benzo[d]imidazol-2-yl)ethyl)amino)-4-((S)-2-methylpiperidin-1-yl)-1,4-dioxobutan-2-yl)-4,4-dimethylpentanamide] | 4.76
C[C@H](NC(=O)[C@H](CC(=O)N1CCCC[C@@H]1C)NC(=O)Cc1ccccc1)c1ncc(-c2ccc(F)cc2F)[nH]1 [CEN-102, (S)—N—((S)-1-(5-(2,4-Difluorophenyl)-1H-imidazol-2-yl)ethyl)-4-((S)-2-methylpiperidin-1-yl)-4-oxo-2-(2-phenylacetamido)butanamide] | 4.99
C[C@H](NC(=O)[C@H](CC(=O)N1CCCC[C@@H]1C)NC(=O)C1CC2(CCC2)C1)c1nc2c(F)cccc2[nH]1 [CEN-42, N—((S)-1-(((S)-1-(4-Fluoro-1H-benzo[d]imidazol-2-yl)ethyl)amino)-4-((S)-2-methylpiperidin-1-yl)-1,4-dioxobutan-2-yl)spiro[3.3]heptane-2-carboxamide] | 4.56
CC[C@H]1CCCCN1C(=O)C[C@H](NC(=O)CCC(C)(C)C)C(=O)N[C@@H](C)c1nc2c(F)cccc2[nH]1 [CEN-13, N—((S)-4-((S)-2-Ethylpiperidin-1-yl)-1-(((S)-1-(4-fluoro-1H-benzo[d]imidazol-2-yl)ethyl)amino)-1,4-dioxobutan-2-yl)-4,4-dimethylpentanamide] | 4.95
C[C@H]1CCCCN1C(=O)C[C@H](NC(=O)C1CC2(C1)CC(F)(F)C2)C(=O)NC1(c2nc3cccc(F)c3[nH]2)CC1 (stereo in doubt) [CEN-62, 6,6-Difluoro-N—((S)-1-((1-(7-fluoro-1H-benzo[d]imidazol-2-yl)cyclopropyl)amino)-4-((S)-2-methylpiperidin-1-yl)-1,4-dioxobutan-2-yl)spiro[3.3]heptane-2-carboxamide] | 5.62
C[C@H](NC(=O)[C@H](CC(=O)N1CCC[C@@H]1c1ccccc1)NC(=O)CCCC(F)(F)F)c1nc2ccccc2s1 [CEN-67, N—((S)-1-(((S)-1-(Benzo[d]thiazol-2-yl)ethyl)amino)-1,4-dioxo-4-((R)-2-phenylpyrrolidin-1-yl)butan-2-yl)-5,5,5-trifluoropentanamide] | < 4.00
CC[C@H]1CCCCN1C(=O)C[C@H](NC(=O)CCC(C)C)C(=O)N[C@@H](C)c1nc2c(F)cc(F)cc2[nH]1 [CEN-45, N—((S)-1-(((S)-1-(4,6-Difluoro-1H-benzo[d]Imidazol-2-yl)ethyl)amino)-4-((S)-2-ethylpiperidin-1-yl)-1,4-dioxobutan-2-yl)-4-methylpentanamide] | 5.39
C[C@H](NC(=O)[C@H](CC(=O)N1CCCC1)NC(=O)CCC(C)(C)C)c1ncc(-c2ccc(F)cc2F)[nH]1 [CEN-83, N—((S)-1-(((S)-1-(5-(2,4-Difluorophenyl)-1H-imidazol-2-yl)ethyl)amino)-1,4-dioxo-4-(pyrrolidin-1-yl)butan-2-yl)-4,4-dimethylpentanamide] | 4.99
